In PMC12040169 (PLOS Biology, 2025):

Experiment: in vitro
Conditions: human, hela cells, % viability

Row | Compound | viability at 28.5 h, 10 µM [%]
1 | COc1cc(CNc2cc(C(=O)O)ccc2C)cc(Br)c1OC [CBK269679] | 95.3
2 | O=C(CN1C(=O)COc2ccccc21)NCc1ccco1 [CBK269682] | 94.8
3 | O=C(CSc1ncn(-c2ccccc2)n1)Nc1c(Cl)cccc1Cl [CBK269683] | 94.7
4 | O=C(CSc1nnc(-c2ccccc2)c(-c2ccccc2)n1)Nc1ccc(N2CCOCC2)cc1 [CBK269684] | 89.7
5 | CCC(C(=O)Nc1ccc(OC(C)=O)cc1C(=O)O)c1ccccc1 (centres unmarked) [CBK269685] | 94.5
6 | COc1ccc(OCC(=O)Nc2ccc(CN3CCOCC3)cc2)cc1 [CBK269686] | 105
7 | CC1CN(CCOc2ccccc2C=O)CC(C)O1 (centres unmarked) [CBK269687C] | 101
8 | Cc1cc(OC(C)C(=O)Nn2cnnc2)ccc1Cl (centres unmarked) [CBK269690] | 98.1
9 | O=C(NCC1CCCO1)c1cc(S(=O)(=O)N2CCOCC2)c(Cl)cc1Cl (centres unmarked) [CBK269691] | 90.3
10 | Nc1nc(CSc2nnc(-c3ccco3)n2-c2ccccc2)cs1 [CBK269693] | 97.9
11 | Cc1nnc(Sc2ccc([N+](=O)[O-])cc2Cl)n1Cc1ccccc1 [CBK269694] | 102
12 | CCn1c(SCC(=O)c2ccc(F)cc2)nnc1C(C)Oc1ccccc1 (centres unmarked) [CBK269695] | 108
13 | Cc1cc(OC(C)C(=O)Nc2ccccc2C(=O)N2CCCCC2)ccc1Cl (centres unmarked) [CBK269696] | 104
14 | Cc1cc(C)c(C)c(S(=O)(=O)Nc2cc(S(=O)(=O)N3CCOCC3)ccc2F)c1C [CBK269698] | 61.9
15 | O=C(c1cccc(-c2cc3ccccc3oc2=O)c1)N1CCN(c2ccc([N+](=O)[O-])cc2Cl)CC1 [CBK269704] | 101
16 | Cc1ccc(-c2nnc(SCc3cccc4nsnc34)n2C)cc1 [CBK269706] | 92.7
17 | c1ccc(-c2nnc(COc3ccc(-c4cnc5ccccc5n4)cc3)o2)cc1 [CBK269707] | 90.4
18 | Cc1cc(OC(C)C(=O)Nc2ccccc2C(=O)N2CCCC2)ccc1Cl (centres unmarked) [CBK269710] | 94.3
19 | O=C(CSc1nc2ccccc2[nH]1)Nc1ccc(OC(F)(F)F)cc1 [CBK269711] | 104
20 | COc1cc(C(C)=O)ccc1OCCCCN1CCOCC1 [CBK269713C] | 98.2
21 | C=CCOc1ccccc1OCCCN1CCN(C)CC1 [CBK269714C] | 95.6
22 | Cc1cccc(C)c1OCc1nnc(SCC(=O)c2ccc(F)cc2)n1C [CBK269715] | 91.2
23 | CC(C)(C)C(=O)NC(=S)Nc1ccc(Cc2ccncc2)cc1 [CBK269717] | 91.5

Row | Compound | viability at 28.5 h, 10 µM [%]
24 | Cc1ccc(C)c(OCCNCc2ccco2)c1Cl [CBK269718C] | 98.3
25 | Cc1ccccc1NC(=O)Cc1nnc(SCC(=O)c2ccccc2)n1C [CBK269719] | 101
26 | Clc1ccc(Cl)c(-c2ccc(CNCc3cccnc3)o2)c1 [CBK269720C] | 103
27 | O=C(Nc1ccc(NC(=O)c2cc(O)nc3ccccc23)cc1)c1ccccc1 [CBK269722] | 106
28 | Cc1ccc(S(=O)(=O)N2CCOCC2)cc1C(=O)Oc1cccc2cccnc12 [CBK269726] | 98
29 | Cc1cccc(OCC(=O)Nc2sc3c(c2C(N)=O)CCC3)c1C [CBK269729] | 94.8
30 | Cc1cc(OC(C)C(=O)Nc2nnc[nH]2)ccc1Cl (centres unmarked) [CBK269731] | 87
31 | Cn1c(SCc2ccc([N+](=O)[O-])cc2)nnc1C(O)c1ccccc1 (centres unmarked) [CBK269735] | 88.6
32 | COc1ccc(C(=O)Nc2ccc(CC(=O)O)cc2)cc1 [CBK269736] | 95
33 | Cc1cccc(C)c1OCc1nnc(SCc2ccc([N+](=O)[O-])cc2)n1C [CBK269737] | 105
34 | Cc1nnc(SCc2nnc(-c3ccccc3)o2)n1Cc1ccccc1 [CBK269743] | 92.2
35 | CS(=O)(=O)Nc1ccccc1C(=O)NCCCN1CCOCC1 [CBK269745] | 112
36 | O=C(Nc1cccc(O)c1)c1ccc(NC(=O)C2CCCO2)cc1 (centres unmarked) [CBK269746] | 91.6
37 | CSc1ccccc1C(=O)NCCCn1ccnc1 [CBK269749] | 85.3
38 | COc1cc(CN2CCNC(=O)C2CC(=O)O)cc(OC)c1 (centres unmarked) [CBK269752] | 105
39 | O=C(NCc1cccnc1)c1ccccc1NS(=O)(=O)c1ccc(F)cc1 [CBK269754] | 70.8
40 | O=C(O)Cn1nnc(-c2ccc(OCc3ccccc3)cc2)n1 [CBK269755] | 85.1
41 | CSc1ccccc1C(=O)NCCN(C)C [CBK269757] | 90.9
42 | N#Cc1ccc(NC(=O)c2ccc(-n3cnnc3)cc2Cl)cc1 [CBK269758] | 87.2
43 | Cn1c(=O)c2[nH]c(N3CCN(c4cccc(O)c4)CC3)nc2n(C)c1=O [CBK269760] | 104
44 | COc1ccc(Cl)cc1S(=O)(=O)N1CCCC(C(=O)NCc2ccccn2)C1 (centres unmarked) [CBK269761] | 96.7
45 | COCCCn1c(C)c(C)n2c3c(=O)n(CCN4CCCCC4)c(=O)n(C)c3nc12 [CBK269762] | 102
46 | COc1ccc(C(=O)Nc2ccccc2N2CCN(C)CC2)c(OC)c1 [CBK269763] | 90.4

Row | Compound | viability at 28.5 h, 10 µM [%]
47 | CCN(CC)CCn1c2ccc(C)cc2c2nc(C)sc21 [CBK269764C] | 99.7
48 | CCn1c(SCC(=O)Nc2ccc(N3CCOCC3)cc2)nnc1-c1ccncc1 [CBK269765] | 89.7
49 | COc1ccc(OC)c(NC(=O)C(C)Oc2ccccc2OC)c1 (centres unmarked) [CBK269766] | 85.3
50 | COc1cc(CNc2nc[nH]n2)ccc1OCc1ccc(C)cc1 [CBK269768] | 113
51 | O=C(Nc1ccccc1C(=O)O)c1cccc(-n2cnnc2)c1 [CBK269769] | 85.4
52 | C=CCOc1ccc(-c2nnn(CC(=O)O)n2)cc1 [CBK269772] | 87.8
53 | Cc1cccc(-c2nc3ccc(NC(=O)CCC(=O)O)cc3o2)c1 [CBK269773] | 95.1
54 | CC(=O)N1CCN(c2ccccc2NC(=O)c2ccc(OCc3ccccc3)cc2)CC1 [CBK269775] | 103
55 | C=CCn1c(C)c(C)n2c3c(=O)n(CCN4CCOCC4)c(=O)n(C)c3nc12 [CBK269778] | 90.8
56 | CS(=O)(=O)Nc1ccc(C(=O)NCCN2CCOCC2)cc1 [CBK269781] | 93.2
57 | COc1ccc(OCc2nc(-c3cccs3)no2)cc1 [CBK269782] | 91.7
58 | COc1ccc(-c2noc(CNC(=O)Nc3ccc(F)cc3)n2)cc1OC [CBK269784] | 97.2
59 | CN(C)S(=O)(=O)N1CCN(c2ccnc3cc(Cl)ccc23)CC1 [CBK269785] | 99.2
60 | CCCOc1ccc(C(=O)NCc2ccccn2)cc1 [CBK269789] | 93.9
61 | Cc1ccccc1CSCC(=O)Nc1c[nH]c(=O)[nH]c1=O [CBK269790] | 86.8
62 | CCOC(=O)CC1C(=O)NCCN1C/C=C\c1ccccc1OC (centres unmarked) [CBK269791] | 94.3
63 | COc1ccc(S(=O)(=O)NCCCN2CCOCC2)c(Cl)c1Cl [CBK269792] | 95.3
64 | O=C1c2ccccc2C(=O)N1CCc1nn2c(-c3cccnc3)nnc2s1 [CBK269793] | 97.9
65 | Cn1c(=O)c2[nH]c(NCCc3ccc(Cl)cc3)nc2n(C)c1=O [CBK269794] | 92
66 | COc1cccc(CNCC2CCCO2)c1OCc1ccccc1 (centres unmarked) [CBK269798C] | 105
67 | Cc1ccc(S(=O)(=O)CC(=O)Nc2ncccn2)cc1 [CBK269800] | 97.3
68 | CS(=O)(=O)N1CCC(C(=O)NC(c2ccccc2)c2ccccc2)CC1 [CBK269801] | 77.8
69 | Cc1ccc(OC(C)C(=O)Nc2ccccc2C(=O)N2CCN(C)CC2)cc1 (centres unmarked) [CBK269802] | 88.6

Row | Compound | viability at 28.5 h, 10 µM [%]
70 | COc1cc(C(=O)Nc2ccccc2C(=O)N2CCN(C)CC2)cc(OC)c1OC [CBK269803] | 88.5
71 | O=C(O)c1cc(NC/C=C/c2ccccc2)ccc1N1CCOCC1 [CBK269806] | 106
72 | O=C1Nc2ccccc2Oc2ccc(S(=O)(=O)N3CCOCC3)cc21 [CBK269807] | 75.5
73 | O=c1c2c3c(sc2ncn1Cc1nn[nH]n1)CCCC3 [CBK269808] | 83.9
74 | O=C(c1cccc(-c2nnc(-c3ccccc3)o2)c1)N1CCN(C(=O)c2ccco2)CC1 [CBK269809] | 78.5
75 | Cc1cc(C)n(-c2nc(NC(C)(C)C)nc(N3CCOCC3)n2)n1 [CBK269810] | 85.5
76 | CC(=O)C(Sc1nc(NC(C)C)nc(N(C)C)n1)C(C)=O [CBK269811] | 90.8
77 | COc1ccc(Cl)cc1-c1noc(Cn2nc(C)c(Cl)c2C)n1 [CBK269813] | 92.1
78 | O=C(O)c1cc(NC(=O)C2CCCO2)ccc1O (centres unmarked) [CBK269815] | 99
79 | Cc1ccc(CNC(=O)COc2ccc(S(=O)(=O)N3CCOCC3)cc2)cc1 [CBK269816] | 87.8
80 | Cn1cccc1CNCc1ccccn1 [CBK269818C] | 96
81 | NS(=O)(=O)c1ccc(CCNCc2ccc3c(c2)OCO3)cc1 [CBK269819C] | 88.5
82 | Cc1cn2c3c(=O)n(CCN4CCCCC4)c(=O)n(C)c3nc2n1CC1CCCO1 (centres unmarked) [CBK269820] | 91.9
83 | CCOC(=O)C1CCN(S(=O)(=O)c2ccc(NC(=O)N3CCCC3)cc2)CC1 [CBK269823] | 100
84 | OCCC1CNCCN1Cc1ccc(F)c(F)c1 (centres unmarked) [CBK269824] | 85.6
85 | CSc1nsc(SCC(=O)Nc2ccccc2C#N)n1 [CBK269826] | 95.1
86 | CS(=O)(=O)Nc1ccc(C(=O)N2CC(=O)Nc3ccccc32)cc1 [CBK269827] | 90.8
87 | COc1cc(C)nc(NC(=O)Nc2cccc(Cl)c2)n1 [CBK269828] | 94.2
88 | CC(=O)c1c(C)nn(CCC(=O)Nc2ccc(Cl)c(Cl)c2)c1C [CBK269829] | 99.3
89 | O=C(Nc1ccccc1)N(Cc1nc(-c2ccccc2)no1)C1CCCCC1 [CBK269830] | 93.2
90 | O=C(O)CSc1nc2ccccc2n2cnnc12 [CBK269831] | 92.8
91 | CSc1nsc(SCC(=O)Nc2cccc(NC(C)=O)c2)n1 [CBK269833] | 93.2
92 | Cc1cc(CNC(=O)c2cc3ccccc3oc2=O)c2ccccc2n1 [CBK269834] | 94.2
